The results in this text go back to patent publication US20230218577A1, “USE OF HEAT SHOCK PROTEIN INHIBITORS FOR THE TREATMENT OF NEURODEVELOPMENTAL DISORDERS” (The Children's Medical Center Corporation, priority 2020, published 2023).

For the assay, the system named is IGF-IRβ, pS6 in wild-type cortical neurons. Description: Proteasomal inhibition experiment, Western blot in wild-type cortical neurons. It counts as cell-based, rat. The note with it: 100 nM bortezomib with 4 μM 17-AGG.

Experimental: Hippocampi and cortexes from 18-day-old rat embryos (Charles River CD1) were isolated under the microscope and collected in Hank's Balanced Salt Solution containing 10 mM MgCl2, 1 mM kynurenic acid, 10 mM HEPES and penicillin/streptomycin. After 5 min dissociation at 37° C. in 30 U/ml of papain, neurons were mechanically triturated and plated in Neurobasal (NB) medium containing B27 supplement, 2 mM L-glutamine, penicillin/streptomycin and primocin (NB/B27). Biochemical analysis was performed on cortical cultures plated at 1×10^6 cells/well onto six-well plates. Immunofluorescent analysis was performed on hippocampal cultures plated at 20×10^3 cells/well onto 96-well plates. All plates were coated with 20 μg/ml poly-D-lysine (PDL).
Stocks of drugs were freshly diluted in NB media before performing each experiment. The same amount of vehicle was used as vehicle-only control. For dose response curves serial dilutions were freshly made in NB media by a manual multichannel pipette using compound dilution plates.
Protein extracts were lysed in 1×SDS (22 mM Tris-HCl pH 6.8, 4% Glycerol, 0.8% SDS, 1.6% β-mercaptoethanol, bromphenol blue) sample buffer, heated to 95° C. for 5 min and stored frozen. Before being subjected to discontinuous gel electrophoresis, equal amounts of all protein lysates were verified by Coomassie gel staining. For immunoblotting, equal amounts of protein lysates were subjected to SDS-PAGE, transferred to Immobilon-P Millipore and incubated in LI-COR blocking solution at RT for 2 hrs. Primary and secondary antibodies were diluted in LI-COR blocking solution to the appropriate concentrations. LI-COR IRDye secondary antibodies were used. All images were acquired using the LI-COR Odyssey Classic imager and associated Image Studio Lite analysis software (version 5.2.5). Quantification of protein expression was performed by densitometry scans of immunoblots using LI-COR Odyssey imaging system.

`CC(C)C[C@H](NC(=O)[C@H](Cc1ccccc1)NC(=O)c1cnccn1)B(O)O` [BTZ, bortezomib]: the “reduction in S6 phosphorylation caused by 17-AGG” value is recorded as “prevented” and the “reduction of IGF-IRβ levels caused by 17-AGG” value is listed as “prevented”.
